Results published in patent US8722729B2, “Unsaturated fatty acid monoesters and diesters on ascorbic acid and cosmetic uses thereof” (Pierre Fabre Dermo-Cosmetique, priority 2009, dated 2014).
“Also recorded” adds a separate entry of the source. Marks after values point to notes of the source that are not given here.

Columns and labels:
[1] = target: T1, hyaluronidase of bovine origin (BTH, Bovine Testis hyaluronidase) (Bos taurus, UniProt Q2YDK3); assay: Assay of hyaluronidase activity (residual HA, HA-ELISA); assay type: biochemical
T1 sequence (Q2YDK3 1-553): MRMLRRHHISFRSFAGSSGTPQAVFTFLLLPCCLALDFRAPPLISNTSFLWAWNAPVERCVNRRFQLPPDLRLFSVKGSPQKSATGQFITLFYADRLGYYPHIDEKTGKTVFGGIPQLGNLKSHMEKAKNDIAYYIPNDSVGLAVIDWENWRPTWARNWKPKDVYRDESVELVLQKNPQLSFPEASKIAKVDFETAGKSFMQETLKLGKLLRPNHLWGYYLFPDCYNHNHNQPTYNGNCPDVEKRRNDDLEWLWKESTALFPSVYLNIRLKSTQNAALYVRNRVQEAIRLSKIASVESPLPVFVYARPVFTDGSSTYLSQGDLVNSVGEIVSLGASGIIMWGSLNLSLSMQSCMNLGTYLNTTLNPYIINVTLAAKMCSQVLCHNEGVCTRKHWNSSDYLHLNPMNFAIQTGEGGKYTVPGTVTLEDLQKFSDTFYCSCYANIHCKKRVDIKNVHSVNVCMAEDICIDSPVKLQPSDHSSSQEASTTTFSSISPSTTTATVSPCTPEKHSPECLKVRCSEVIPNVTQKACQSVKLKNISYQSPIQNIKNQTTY
Method: Hyaluronidase activity is measured by the assay of residual hyaluronic acid (HA). The substrate is fixed to a carrier then placed in the presence of an enzyme and a quantity of compound to be tested. The residual HA i.e. the non-hydrolyzed HA is assayed using a HA-Elisa detection system: Hyaluronan enzyme-linked immunosorbent assay (Echelon Biosciences®).
0.5 units of hyaluronidase of bovine origin (BTH, Bovine Testis hyaluronidase) were pre-incubated at 37° C. with the compound to be tested. This mixture was deposited on the HA fixed to the surface of a microplate well. The enzymatic reaction took place at pH 7.2n at 37° C. Washing was followed by a recognition step of residual HA by hyaluronectin (NH). The quantity of bonded NH was measured by ELISA using an anti-NH antibody conjugated with alkaline phosphatase. The p-nitrophenyl phosphate disodium salt (pnNpp) substrate of the phosphatase allows spectrometric detection at 405 nm. (Delpech B et al., Analytical Biochemistry 149, 555(565 (1985); Robert Stern et al. Analytical Biochemistry 251, 263-269 (1997)). OD intensity was correlated with the quantity of residual HA. The quantity of residual HA is directly linked to enzymatic activity. In the presence of an inhibitor, the larger the quantity of residual HA the more the sample is inhibiting. A percentage inhibition of hyaluronidase will be expressed.
Therefore the net enzymatic activities were calculated which represent the difference in mean gross activity without enzyme and the gross activity of the enzyme with or without the compound to be tested.
The percentage enzymatic inhibition related to the compound to be tested was calculated as follows: % inhibition=(Maximum net enzymatic activity)−Net enzymatic activity in the presence of the compound to be tested)/Maximum net enzymatic activity.
where the maximum net enzymatic activity represents the mean net enzymatic activity of 0.5 U.

MMP-1 = assay: Gene expression of MMP-1 in human dermal fibroblasts treated with H2O2 (real-time PCR); assay type: cell-based; conditions: for RQ (relative quantity of mRNA) MMP-1 / % Inhibition of the level of mRNA expression MMP-1: 3 μM; for RQ (relative quantity of mRNA) MMP-1: senescent fibroblasts stimulated with H2O2, non-treated control = 1; for % Inhibition of the level of mRNA expression MMP-1: vs H2O2 alone
Method: To evidence the activity of the compounds of general formula (I) against skin ageing and against inflammation, the effect of these compounds was measured on the gene expression of MMP-1, MMP-3 and IL8 in human dermal fibroblasts treated with H2O2, thereby mimicking the process of cellular senescence. The effect of these compounds of general formula (I) was also measured on the synthesis of hyaluronic acid and on hyaluronidase activity. The stimulation of the synthesis of hyaluronic acid also allows skin hydration to be improved and/or restored (Bissett D L. J. Cosmet. Dermatol. 2006 Dec. 5(4): 309-15. Glucosamine: an ingredient with skin and other benefits).
Human dermal fibroblasts (isolated from discarded operative skin) were cultured in DMEM culture medium+10% FCS. The cells were pre-treated with vitamin C and the compound to be tested for 16 h at 37° C. and then stimulated with H2O2. The cells were then replaced in DMEM with vitamin C and dioctadeca-9,12-dienoate of (9Z,9′Z,12Z,12′Z)-2-(2,2-dimethyl-1,3-dioxolan-4-yl)-5-oxo-2,5-dihydrofuran-3,4-diyl. 72 hours after ending of stress, the fibroblasts entered into senescence: the senescent fibroblasts no longer proliferate but remain metabolically active (Hayflick, J. Invest. Dermatol., 73; 8-14, 1979). The cells were then lysed with the lysis buffer of the RNeasy® kit (QIAGEN).
The extracted RNAs were converted to complementary DNA following the indications of the Quantitect Reverse Transcription kit by Qiagen. Real-time PCR analyses were conducted using an iQ cycler fluorescence thermocycler (BIO-RAD).
The level of expression of the mRNAs coding for MMP-1, MMP-3, IL8 was analyzed using the real-time PCR technique. To normalize the level of expression of the gene of interest, the analysis strategy developed by Vandesompela et al., Genome Biol. 3: RESEARCH0034 (2002) was chosen. […] In our model, the three tested reference genes were the following: β-actin (Human β-actin), GAPDH (Human glyceraldehyde-3-phosphate dehydrogenase) and YWHAZ (Tyrosine-3-monooxygenase, tryptopgan-5-monooxygenase activation protein zeta polypeptide).
The first step normalizes the Ct values obtained for the gene of interest in relation to the Ct values obtained for the reference gene, for each experimental condition.
The following was therefore calculated: ΔCt=Ctgene of interest−Ctreference gene
The second step of the calculation determines the variation in the number of copies of the gene of interest during treatment. To do so ΔΔCt is calculated: ΔΔCt=ΔCtnon-treated NHF−ΔCttreated NHF
For the non-treated control, this QR is therefore equal to 1. It is then possible to calculate an induction or inhibition factor of the gene of interest compared with this control.
Statistical analysis was performed using a test called “one-way ANOVA”. Variance analysis using the Dunnett test then allows the comparing, for each of the analyzed genes, of the ΔCt values of normal adult fibroblasts with the compounds in the presence of H2O2 in both cases. This test then gives the “p value” characterizing the significance of the results obtained for both conditions The degree of significance was established as follows: • significant for p<0.05(*) • very significant for p<0.005(**) • highly significant for p<0.001(***) • non-significant for p>0.05. […]
It is also possible to calculate percentage inhibition of the level of expression of the different mRNAs by the active ingredients to be evaluated, using the formula: […]

[2] = 0.5 U BTH, read-out: Enzymatic inhibition (mean as a percentage)

Row | SMILES | Effect on hyaluronidase [1] | inhibition at 5 µM ([1]; 5 μM, 0.5 U BTH, read-out: Enzymatic inhibition (mean as a percentage)) [%] | inhibition at 10 µM ([1]; 10 μM, 0.5 U BTH, read-out: Enzymatic inhibition (mean as a percentage)) [%] | inhibition at 20 µM ([1]; 20 μM, 0.5 U BTH, read-out: Enzymatic inhibition (mean as a percentage)) [%] | inhibition at 25 µM ([1]; 25 μM, 0.5 U BTH, read-out: Enzymatic inhibition (mean as a percentage)) [%] | inhibition at 30 µM ([1]; 30 μM, 0.5 U BTH, read-out: Enzymatic inhibition (mean as a percentage)) [%] | inhibition at 40 µM ([1]; 40 μM, 0.5 U BTH, read-out: Enzymatic inhibition (mean as a percentage)) [%] | inhibition at 50 µM ([1]; 50 μM, 0.5 U BTH, read-out: Enzymatic inhibition (mean as a percentage)) [%] | inhibition at 100 µM [1, 2] [%] | inhibition at 250 µM ([1]; 250 μM, 0.5 U BTH, read-out: Enzymatic inhibition (mean as a percentage)) [%] | inhibition at 500 µM [1, 2] [%] | IC50 ([1]; in the region of) [µM] | Inhibition of MMP1 expression compared with ascorbic acid (MMP-1) | RQ (relative quantity of mRNA) MMP-1 (MMP-1) | % Inhibition of the level of mRNA expression MMP-1 (MMP-1)
1 | CCCCC/C=C\C/C=C\CCCCCCCC(=O)OC1=C(OC(=O)CCCCCCC/C=C\C/C=C\CCCCC)C(C2COC(C)(C)O2)OC1=O (centres unmarked) [Molecule 1, diactodeca-9,12-dienoate of (9Z,9′Z,12Z,12′Z)-2-(2,2-dimethyl-1,3-dioxolan-4-yl)-5-oxo-2,5-dihydrofuran-3,4-diyl] | strongly inhibit hyaluronidase; also recorded: equivalent to or more active than ascorbyl palmitate | 14 | 21 | 44 | 46 | 66 | 86 | 76 | 113 | 119 | 122 | 25 to 30 | more substantially inhibits the expression of MMP1, MMP3 and IL-8 than ascorbic acid | 0.9 | 105*** %
2 | O=C1O[C@H]([C@@H](O)CO)C(O)=C1O [Ascorbic acid, ascorbic acid] | no effect | – | – | – | – | – | – | – | 1 | – | 4 | – | – | 3.2 | 18%
